Source: the supplement of paper PMC7394473

Key:
Details in all cases: 72 h
[1] = test system: U2OS; assay: GR50 (concentration giving GR = 0.5)
Procedure: (§1)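 U2OS cells treated with full dose titrations of drug; live and dead cells counted by STACK microscopy (mKate2 nuclei, SYTOX Green) at 72 h, biological triplicates. GR and FV dose responses were fitted with 4-parameter logistic models (GR lower bound -1). GRADE (0-100) is the rescaled angle of a linear fit of FV versus GR at doses with GR >= 0, giving the percentage of the response due to cell death.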

[2] = test system: U2OS; assay: fractional viability (live cells / total cells); higher = less cell death
Procedure: (§2)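 U2OS::Nuc-mKate2 cells seeded in 96-well plates and treated with eight- to ten-point half-log or log dilutions of drug in the presence of 50 nM SYTOX Green. Live (mKate2+) and dead (SYTOX+) cells were counted by IncuCyte STACK live-cell microscopy at 72 h; biological triplicates. GR is the normalised growth-rate inhibition value (Hafner 2016; 1 = untreated growth, <0 = population shrinking). FV is live/(live+dead) cells, not normalised.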

[3] = test system: U2OS; assay: FV IC50 (concentration giving fractional viability 0.5); higher = less potent killing
Procedure: as §1

[4] = test system: U2OS; assay: drug GRADE (percent of response due to cell death) (% (0-100)); higher = more death-driven response
Procedure: as §1

[5] = test system: U2OS; assay: GRmin (fitted minimal GR value at highest effect) (GR value (dimensionless)); higher = less efficacious
Procedure: as §1

[6] = test system: U2OS; assay: normalized growth rate inhibition value (GR) relative to untreated cells (GR value (dimensionless, 1 = untreated growth)); higher = less growth inhibition
Procedure: as §2

NC(=O)Nc1cc(-c2cccc(F)c2)sc1C(=O)N[C@H]1CCCNC1 [AZD7762]
Details	FV IC50 [nM]	GR50 [µM]	GRmin	drug GRADE
[1]	–	0.11	–	–
[3]	510	–	–	–
[4]	–	–	–	20
[5]	–	–	-0.614	–

Details	fractional viability, [2]	normalized growth rate inhibition value, [6]
0.00100578 µM	0.991	1.04
0.00317827 µM	0.992	1.04
0.0100433 µM	0.992	1.19
0.0317369 µM	0.988	1.12
0.100289 µM	0.894	0.423
0.316912 µM	0.548	-0.126
1.00144 µM	0.398	-0.318
3.16456 µM	0.0972	-0.622
10 µM	0.0629	-0.718

O=C(Nc1ccc([N+](=O)[O-])cc1Cl)c1cc(Cl)ccc1O [Nicolsamide]
Details	FV IC50 [nM]	GR50 [µM]	GRmin	drug GRADE
[1]	–	0.347	–	–
[3]	803	–	–	–
[4]	–	–	–	29.4
[5]	–	–	-0.791	–

Details	fractional viability, [2]	normalized growth rate inhibition value, [6]
0.01 µM	0.98	0.975
0.0316 µM	0.975	1.01
0.1 µM	0.979	0.934
0.316 µM	0.942	0.557
1 µM	0.33	-0.319
3.16 µM	0.0377	-0.722
10 µM	0.0138	-0.81
31.6 µM	0.0218	-0.763

CC[C@@]1(O)C(=O)OCc2c1cc1n(c2=O)Cc2cc3c(CN(C)C)c(O)ccc3nc2-1 [Topotecan]
Details	FV IC50 [nM]	GR50 [µM]	GRmin	drug GRADE
[1]	–	0.0151	–	–
[3]	7660	–	–	–
[4]	–	–	–	9.92
[5]	–	–	-0.0768	–

Details	fractional viability, [2]	normalized growth rate inhibition value, [6]
0.00100578 µM	0.985	1.09
0.00317827 µM	0.985	0.979
0.0100433 µM	0.978	0.698
0.0317369 µM	0.94	0.105
0.100289 µM	0.963	0.14
0.316912 µM	0.923	0.0543
1.00144 µM	0.846	-0.044
3.16456 µM	0.675	-0.147
10 µM	0.444	-0.295

CNc1cc(-c2cccc(Cl)c2Cl)nc(N)n1 [TH287]
Details	FV IC50 [nM]	GR50 [µM]	GRmin	drug GRADE
[1]	–	0.672	–	–
[3]	3640	–	–	–
[4]	–	–	–	60
[5]	–	–	-0.144	–

Details	fractional viability, [2]	normalized growth rate inhibition value, [6]
0.01 µM	0.973	0.956
0.0316 µM	0.981	0.997
0.1 µM	0.976	0.99
0.316 µM	0.953	0.786
1 µM	0.787	0.278
3.16 µM	0.534	0.0764
10 µM	0.383	-0.106
31.6 µM	0.476	-0.187

COC(=O)c1ccc([C@H]2c3[nH]c4ccccc4c3C[C@H](C(=O)OC)N2C(=O)CCl)cc1 [RSL3]
Details	FV IC50 [nM]	GR50 [µM]	GRmin	drug GRADE
[1]	–	1.58	–	–
[3]	3550	–	–	–
[4]	–	–	–	54.5
[5]	–	–	-0.866	–

Details	fractional viability, [2]	normalized growth rate inhibition value, [6]
0.01 µM	0.983	1.05
0.0316 µM	0.976	0.96
0.1 µM	0.977	0.977
0.316 µM	0.974	0.999
1 µM	0.956	0.792
3.16 µM	0.566	-0.133
10 µM	0.0831	-0.646
31.6 µM	0.00106	-0.916

CCc1cnn2c(NCc3ccc[n+]([O-])c3)cc(N3CCCC[C@H]3CCO)nc12 [Dinaciclib]
Details	FV IC50 [nM]	GR50 [µM]	GRmin	drug GRADE
[1]	–	0.00437	–	–
[3]	8.07	–	–	–
[4]	–	–	–	3.29
[5]	–	–	-0.376	–

Details	fractional viability, [2]	normalized growth rate inhibition value, [6]
0.000100578 µM	0.986	0.892
0.000317827 µM	0.983	0.802
0.00100433 µM	0.984	0.876
0.00317369 µM	0.972	0.756
0.0100289 µM	0.41	-0.288
0.0316912 µM	0.32	-0.406
0.100144 µM	0.339	-0.368
0.316456 µM	0.35	-0.358
1 µM	0.406	-0.373

CC(=O)O[C@@]12CO[C@@H]1C[C@H](O)[C@@]1(C)C(=O)[C@H](O)C3=C(C)[C@@H](OC(=O)[C@H](O)[C@@H](NC(=O)OC(C)(C)C)c4ccccc4)C[C@@](O)([C@@H](OC(=O)c4ccccc4)[C@H]21)C3(C)C [Docetaxel]
Details	FV IC50 [nM]	GR50 [µM]	GRmin	drug GRADE
[1]	–	0.000853	–	–
[3]	4.77	–	–	–
[4]	–	–	–	69.6
[5]	–	–	-0.193	–

Details	fractional viability, [2]	normalized growth rate inhibition value, [6]
0.00100578 µM	0.707	0.339
0.00317827 µM	0.588	0.223
0.0100433 µM	0.41	0.0565
0.0317369 µM	0.413	-0.0266
0.100289 µM	0.323	-0.14
0.316912 µM	0.351	-0.174
1.00144 µM	0.252	-0.245
3.16456 µM	0.238	-0.251
10 µM	0.255	-0.164

C[C@@H]1O[C@@H](O[C@H]2C[C@@H](O)[C@]3(CO)[C@H]4[C@H](O)C[C@]5(C)[C@@H](C6=CC(=O)OC6)CC[C@]5(O)[C@@H]4CC[C@]3(O)C2)[C@H](O)[C@H](O)[C@H]1O [Ouabain]
Details	FV IC50 [nM]	GR50 [µM]	GRmin	drug GRADE
[1]	–	0.0164	–	–
[3]	52.6	–	–	–
[4]	–	–	–	30.9
[5]	–	–	-0.593	–

Details	fractional viability, [2]	normalized growth rate inhibition value, [6]
0.01 µM	0.977	0.661
0.0316 µM	0.763	0.148
0.1 µM	0.249	-0.42
0.316 µM	0.165	-0.554
1 µM	0.149	-0.569
3.16 µM	0.142	-0.6
10 µM	0.161	-0.579
31.6 µM	0.141	-0.629

CC(C)C[C@@H](C=O)NC(=O)[C@H](CC(C)C)NC(=O)[C@H](CC(C)C)NC(=O)OCc1ccccc1 [MG-132]
Details	FV IC50 [nM]	GR50 [µM]	GRmin	drug GRADE
[1]	–	1.03	–	–
[3]	2240	–	–	–
[4]	–	–	–	13.5
[5]	–	–	-0.949	–

Details	fractional viability, [2]	normalized growth rate inhibition value, [6]
0.01 µM	0.973	1.02
0.0316 µM	0.977	1.01
0.1 µM	0.979	0.929
0.316 µM	0.974	0.9
1 µM	0.929	0.524
3.16 µM	0.226	-0.442
10 µM	0.00177	-0.885
31.6 µM	0	-0.93
